Earlier results in patent US11083779B2, “Method for treatment of encephalopathy” (priority 2018, dated 2021).

System: toxic encephalopathy
Settings: PIRACETAM i.v. 10-15 minutes before transcranial electrical stimulation, two steps (77 Hz, 10 Hz)

SMILES: NC(=O)CN1CCCC1=O [PIRACETAM®, PIRACETAM]
- patient symptoms after treatment: decrease of headaches, giddiness and the improvement of sleep
